Data set [1] deals with T1, Calmodulin-sensitive adenylate cyclase (Bacillus anthracis) (UniProt P40136).
T1 sequence (whole entry): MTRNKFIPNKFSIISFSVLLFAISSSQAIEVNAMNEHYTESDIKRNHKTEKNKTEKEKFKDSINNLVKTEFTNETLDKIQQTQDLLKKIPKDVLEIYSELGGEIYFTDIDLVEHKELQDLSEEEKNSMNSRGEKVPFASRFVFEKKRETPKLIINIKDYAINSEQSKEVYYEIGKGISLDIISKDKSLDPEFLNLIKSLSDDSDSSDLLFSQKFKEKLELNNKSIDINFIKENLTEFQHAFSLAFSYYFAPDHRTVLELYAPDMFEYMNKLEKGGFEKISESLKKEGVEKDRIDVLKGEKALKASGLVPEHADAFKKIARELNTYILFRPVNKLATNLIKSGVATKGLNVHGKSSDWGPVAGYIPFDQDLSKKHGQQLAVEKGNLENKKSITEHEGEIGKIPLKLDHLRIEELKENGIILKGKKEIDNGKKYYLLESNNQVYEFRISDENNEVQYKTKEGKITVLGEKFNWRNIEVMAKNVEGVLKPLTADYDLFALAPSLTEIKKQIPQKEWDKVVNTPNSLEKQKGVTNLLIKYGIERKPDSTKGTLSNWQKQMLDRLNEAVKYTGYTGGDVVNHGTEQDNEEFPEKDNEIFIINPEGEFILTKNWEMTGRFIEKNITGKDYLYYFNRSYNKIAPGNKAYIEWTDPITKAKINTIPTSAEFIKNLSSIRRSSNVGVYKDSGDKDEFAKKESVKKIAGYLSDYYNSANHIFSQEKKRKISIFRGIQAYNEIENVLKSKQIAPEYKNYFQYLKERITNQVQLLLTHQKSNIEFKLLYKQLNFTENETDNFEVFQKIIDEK
Nature of the data set: Inactivation of Bacillus anthracis edema factor assessed as Kinact/Ki ratio in presence of CaM incubated for 10 to 240 mins by EnzChek pyrophosphate assay.

For data set [2], the target named is T2, Calmodulin-sensitive adenylate cyclase (Bacillus anthracis, UniProt P40136).
T2 sequence (P40136 whole entry): T1 sequence (whole entry)
Nature of the data set: Inactivation of Bacillus anthracis edema factor in presence of CaM incubated for 10 to 240 mins by EnzChek pyrophosphate assay.

The test system of data set [3] is RAW264.7. In words: Cytotoxicity against mouse RAW264.7 cells assessed a reduction in cell viability incubated for 24 hrs in absence of 10% FBS by MTT assay. It counts as cell-based. Conditions: raw264.7, 24 h. (In general: Tetrazolium assays rely on reduction of a dye to a coloured formazan, in cell work by metabolically active cells.)
Data set [4] deals with RAW264.7. Nature of the data set: (§1) Cytotoxicity against mouse RAW264.7 cells assessed a reduction in cell viability incubated for 24 hrs in presence of 10% FBS by MTT assay. It counts as cell-based. Conditions: raw264.7, 24 h.
The target in data set [5] is T1, Calmodulin-sensitive adenylate cyclase (Bacillus anthracis). Nature of the data set: Inactivation of Bacillus anthracis edema factor assessed as Kinact/Ki ratio in presence of CaM incubated for 10 to 240 mins by EnzChek pyrophosphate assay relative to FSBA.
The target is the same in data set [6]. In words: Inactivation of Bacillus anthracis edema factor assessed as inactivation rate constant in presence of CaM incubated for 10 to 240 mins by EnzChek pyrophosphate assay.
Data set [7] shares this target. Nature of the data set: Irreversible inactivation of Bacillus anthracis edema factor pre-incubated for 90 mins followed by drug filtration by EnzChek pyrophosphate assay.
The nature of data set [8]: as §1. It counts as cell-based. Conditions: RAW264.7 cells.
Data set [9] concerns the target Mitogen-activated protein kinase 14 (Homo sapiens) (UniProt Q16539). In words: Inhibition of human p38alpha at 10 uM by ADP-Glo kinase assay.
Data set [10] deals with RAC-alpha serine/threonine-protein kinase (Homo sapiens) (UniProt P31749). In words: Inhibition of human AKT1 at 10 uM by ADP-Glo kinase assay. In general terms: ADP-Glo first removes unused ATP, then detects ADP through luciferase.
The target of data set [11] is Misshapen-like kinase 1 (Homo sapiens) (UniProt Q8N4C8). Nature of the data set: Inhibition of human MINK at 10 uM by ADP-Glo kinase assay.
Data set [12] concerns the target Casein kinase I isoform alpha (Homo sapiens) (UniProt P48729). In words: Inhibition of human CK1a1 at 10 uM by ADP-Glo kinase assay.
Data set [13] has as its target T3, Inhibitor of nuclear factor kappa-B kinase subunit beta (Homo sapiens) (UniProt O14920).
T3 sequence (whole entry): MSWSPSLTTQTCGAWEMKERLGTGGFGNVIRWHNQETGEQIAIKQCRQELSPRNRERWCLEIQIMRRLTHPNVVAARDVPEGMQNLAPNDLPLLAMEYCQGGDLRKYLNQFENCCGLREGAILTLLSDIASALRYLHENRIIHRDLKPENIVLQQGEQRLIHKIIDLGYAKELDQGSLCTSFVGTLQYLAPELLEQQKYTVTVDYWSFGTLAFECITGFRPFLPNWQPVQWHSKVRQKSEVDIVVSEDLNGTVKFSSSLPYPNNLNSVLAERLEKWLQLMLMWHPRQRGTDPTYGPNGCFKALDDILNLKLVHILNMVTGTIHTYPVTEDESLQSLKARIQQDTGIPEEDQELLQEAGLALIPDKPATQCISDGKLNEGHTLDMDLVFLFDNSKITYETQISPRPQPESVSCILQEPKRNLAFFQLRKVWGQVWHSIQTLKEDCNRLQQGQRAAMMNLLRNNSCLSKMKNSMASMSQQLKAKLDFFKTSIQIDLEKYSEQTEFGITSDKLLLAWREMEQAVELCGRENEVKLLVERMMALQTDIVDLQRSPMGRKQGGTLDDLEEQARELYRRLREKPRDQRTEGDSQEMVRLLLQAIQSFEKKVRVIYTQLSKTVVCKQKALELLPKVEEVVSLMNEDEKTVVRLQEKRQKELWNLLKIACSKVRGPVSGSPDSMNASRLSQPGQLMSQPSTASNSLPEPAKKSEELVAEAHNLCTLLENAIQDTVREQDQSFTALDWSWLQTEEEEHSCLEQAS
Nature of the data set: Inhibition of human IKKbeta at 10 uM by ADP-Glo kinase assay.

Data set [14] addresses Casein kinase II subunit alpha (Homo sapiens) (UniProt P68400). Nature of the data set: Inhibition of human CK2a1 at 10 uM by ADP-Glo kinase assay.
The target in data set [15] is Casein kinase I isoform gamma-1 (Homo sapiens) (UniProt Q9HCP0). In words: Inhibition of human CK1g1 at 10 uM by ADP-Glo kinase assay.

A value given as a limit tells only on which side of the number the result lay.

Mitogen-activated protein kinase 14 (Homo sapiens), sequence (Q16539 whole entry): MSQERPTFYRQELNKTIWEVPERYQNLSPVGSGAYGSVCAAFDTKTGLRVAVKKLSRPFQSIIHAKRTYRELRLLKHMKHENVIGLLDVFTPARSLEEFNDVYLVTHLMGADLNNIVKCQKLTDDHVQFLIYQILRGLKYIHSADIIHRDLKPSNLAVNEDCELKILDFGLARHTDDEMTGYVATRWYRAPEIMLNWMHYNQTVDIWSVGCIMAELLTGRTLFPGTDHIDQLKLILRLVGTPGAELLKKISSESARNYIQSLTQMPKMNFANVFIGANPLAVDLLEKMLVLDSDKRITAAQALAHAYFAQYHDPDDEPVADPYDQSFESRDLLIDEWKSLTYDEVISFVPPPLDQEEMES
Casein kinase II subunit alpha (Homo sapiens), sequence (P68400 whole entry, looked up, canonical isoform): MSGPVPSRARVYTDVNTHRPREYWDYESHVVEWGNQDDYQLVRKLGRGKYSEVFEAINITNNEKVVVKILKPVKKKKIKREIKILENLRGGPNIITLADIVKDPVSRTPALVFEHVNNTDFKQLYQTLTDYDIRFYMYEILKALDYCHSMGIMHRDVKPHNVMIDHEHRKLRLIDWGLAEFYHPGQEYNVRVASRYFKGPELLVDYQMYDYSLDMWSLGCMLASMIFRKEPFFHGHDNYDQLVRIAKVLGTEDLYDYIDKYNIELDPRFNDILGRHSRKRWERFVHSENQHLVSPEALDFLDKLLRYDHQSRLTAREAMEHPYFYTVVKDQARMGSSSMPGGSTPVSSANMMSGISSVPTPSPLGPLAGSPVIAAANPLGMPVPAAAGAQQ
Misshapen-like kinase 1 (Homo sapiens), sequence (Q8N4C8 whole entry, looked up, canonical isoform): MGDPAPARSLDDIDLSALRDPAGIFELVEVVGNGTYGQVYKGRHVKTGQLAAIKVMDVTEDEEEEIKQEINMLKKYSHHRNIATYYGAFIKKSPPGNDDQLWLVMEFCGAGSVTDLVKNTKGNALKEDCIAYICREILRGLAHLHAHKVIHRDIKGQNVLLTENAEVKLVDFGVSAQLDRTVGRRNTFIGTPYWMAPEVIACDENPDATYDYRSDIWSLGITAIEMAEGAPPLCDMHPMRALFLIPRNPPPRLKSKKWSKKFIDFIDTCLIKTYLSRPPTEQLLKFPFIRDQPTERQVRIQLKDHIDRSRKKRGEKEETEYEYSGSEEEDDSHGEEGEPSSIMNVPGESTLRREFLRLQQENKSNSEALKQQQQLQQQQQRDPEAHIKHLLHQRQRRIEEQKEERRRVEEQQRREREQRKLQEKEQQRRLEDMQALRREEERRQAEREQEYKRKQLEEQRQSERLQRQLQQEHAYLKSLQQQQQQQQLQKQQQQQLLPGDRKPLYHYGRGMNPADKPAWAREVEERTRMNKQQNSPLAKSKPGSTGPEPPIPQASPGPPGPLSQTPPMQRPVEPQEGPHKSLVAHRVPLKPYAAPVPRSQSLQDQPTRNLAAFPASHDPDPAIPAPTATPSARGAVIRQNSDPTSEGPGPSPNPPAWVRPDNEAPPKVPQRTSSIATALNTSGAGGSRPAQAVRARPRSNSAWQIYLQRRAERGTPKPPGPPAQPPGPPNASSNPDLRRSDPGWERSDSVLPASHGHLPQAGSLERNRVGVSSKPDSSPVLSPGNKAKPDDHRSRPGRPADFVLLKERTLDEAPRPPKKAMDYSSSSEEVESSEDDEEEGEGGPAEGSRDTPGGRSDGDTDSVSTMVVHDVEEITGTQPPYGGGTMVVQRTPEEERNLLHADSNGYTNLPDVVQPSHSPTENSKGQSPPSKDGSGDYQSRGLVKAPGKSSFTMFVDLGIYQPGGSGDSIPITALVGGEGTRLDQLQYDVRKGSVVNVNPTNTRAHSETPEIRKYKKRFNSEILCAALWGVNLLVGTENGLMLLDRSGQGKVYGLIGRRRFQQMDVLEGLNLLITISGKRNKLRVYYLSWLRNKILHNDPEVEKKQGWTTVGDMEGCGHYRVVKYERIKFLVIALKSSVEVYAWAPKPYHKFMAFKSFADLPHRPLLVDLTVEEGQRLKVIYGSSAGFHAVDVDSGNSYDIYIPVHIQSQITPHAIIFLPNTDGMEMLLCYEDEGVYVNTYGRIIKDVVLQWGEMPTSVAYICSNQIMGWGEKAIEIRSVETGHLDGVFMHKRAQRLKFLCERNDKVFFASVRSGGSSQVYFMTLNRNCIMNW
Casein kinase I isoform gamma-1 (Homo sapiens), sequence (Q9HCP0 whole entry, looked up, canonical isoform): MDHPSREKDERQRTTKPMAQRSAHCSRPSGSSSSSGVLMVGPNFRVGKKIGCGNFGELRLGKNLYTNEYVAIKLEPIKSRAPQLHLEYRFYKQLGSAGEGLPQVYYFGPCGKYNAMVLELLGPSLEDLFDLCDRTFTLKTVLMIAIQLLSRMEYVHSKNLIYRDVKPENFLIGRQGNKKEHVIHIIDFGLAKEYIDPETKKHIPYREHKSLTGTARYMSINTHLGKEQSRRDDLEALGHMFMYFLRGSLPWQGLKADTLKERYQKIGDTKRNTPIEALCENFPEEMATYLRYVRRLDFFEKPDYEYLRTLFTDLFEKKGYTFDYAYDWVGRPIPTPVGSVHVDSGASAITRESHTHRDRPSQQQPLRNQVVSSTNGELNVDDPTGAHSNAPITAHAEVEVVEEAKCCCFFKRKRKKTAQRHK
Casein kinase I isoform alpha (Homo sapiens), sequence (P48729 2-337 limits assumed): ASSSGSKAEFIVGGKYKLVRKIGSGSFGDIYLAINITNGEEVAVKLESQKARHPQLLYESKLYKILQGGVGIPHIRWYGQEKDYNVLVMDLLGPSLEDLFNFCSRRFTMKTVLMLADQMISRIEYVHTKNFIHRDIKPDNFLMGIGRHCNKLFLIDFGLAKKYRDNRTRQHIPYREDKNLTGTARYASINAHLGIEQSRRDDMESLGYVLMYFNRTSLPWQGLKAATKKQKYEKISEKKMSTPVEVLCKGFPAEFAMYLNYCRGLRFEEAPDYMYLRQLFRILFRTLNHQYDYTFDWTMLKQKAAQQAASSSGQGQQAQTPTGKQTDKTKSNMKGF
RAC-alpha serine/threonine-protein kinase (Homo sapiens), sequence (P31749 whole entry): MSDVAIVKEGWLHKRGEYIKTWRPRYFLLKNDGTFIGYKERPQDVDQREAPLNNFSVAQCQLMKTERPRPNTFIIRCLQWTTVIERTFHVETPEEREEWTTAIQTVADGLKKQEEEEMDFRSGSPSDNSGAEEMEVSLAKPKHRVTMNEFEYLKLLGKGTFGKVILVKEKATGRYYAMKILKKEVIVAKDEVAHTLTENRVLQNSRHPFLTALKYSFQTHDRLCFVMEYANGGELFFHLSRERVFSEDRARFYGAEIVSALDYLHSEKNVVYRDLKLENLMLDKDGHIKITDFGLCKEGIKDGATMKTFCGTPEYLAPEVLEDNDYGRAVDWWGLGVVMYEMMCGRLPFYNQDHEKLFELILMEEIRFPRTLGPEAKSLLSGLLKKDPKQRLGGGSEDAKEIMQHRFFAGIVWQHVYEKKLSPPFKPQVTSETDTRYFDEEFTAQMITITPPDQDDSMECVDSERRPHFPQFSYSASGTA

`Nc1cc(OCc2ccc(S(=O)(=O)F)cc2)ccn1`: the Ratio is 3.5 in data set [1] and 0.3 in data set [5]. Also, the Ki in data set [2] came to 955 µM. Moreover, the Activity result with RAW264.7 [3] was “Non-Toxic”. Moreover, the 50% cytotoxic concentration (CC50) (commonly the concentration at which the toxic effect on the cells reaches its halfway point) in the data set with RAW264.7 [4] came to 86 µM. Also, the Kinact in data set [6] is 0.198 min⁻¹.

Consider `Nc1ncnc2c1ncn2[C@@H]1O[C@H](COC(=O)c2ccc(S(=O)(=O)F)cc2)[C@@H](O)[C@H]1O`, for which the Ratio in data set [1] is 13.4. Also, the inhibition (as a rule, the relative decrease from the control value, in per cent) in data set [7] is “Dose-dependent effect”. In [2], the Ki was found to be 18.4 µM. Further, the Activity result with RAW264.7 [3] is listed as “Non-Toxic”. For the same molecule, the cytotoxic concentration (CC50) at 24 h in data set [8] was above 100 µM. The Kinact in [6] worked out at 0.015 min⁻¹.

With `CN[C@@H]1C[C@H]2O[C@@](C)([C@@H]1OC)n1c3ccccc3c3c4c(c5c6ccccc6n2c5c31)C(=O)NC4`, the inhibition in data set [9] was 11%; in data set [10], 61%; in [11], 98%; in data set [12] it was 51%; in data set [13], 64%; in data set [14] it was 64%. The molecule further showed an inhibition in data set [15] of 38%.

For the origin of these results see ChEMBL document CHEMBL4177722, “Small molecule inhibitors of anthrax edema factor” (Bioorg Med Chem Lett, 2018).
